5 compounds from ChEMBL document CHEMBL3244379, “Stereochemical studies on medicinal agents. 23. Synthesis and biological evaluation of 6-amino derivatives of naloxone and naltrexone” (J Med Chem, 1977) can be followed below.

Assay [1] addresses T1, Opioid receptors; mu/kappa/delta (Homo sapiens, UniProt P41145+P41143+P35372). Description: Displacement of [3H] naloxone from opioid receptor (unknown origin) in presence of 100 mM NaCl. (In general: Loss of bound radioactivity is the signal in a displacement assay; it reports binding, not function.)
The test system of assay [2] is Mus musculus. Description: Antinociceptive activity in sc dosed Swiss Webster mouse by tail-flick assay. The format is functional. On the technique in general: Hot-plate and tail-flick tests time the reaction to a heat stimulus.
For assay [3], the target named is T1, Opioid receptors; mu/kappa/delta. Description: Displacement of [3H] naloxone from opioid receptor (unknown origin).
Assay [4] relates to Mus musculus. Description: Antinociceptive activity in Swiss Webster mouse at 5.12 mg/kg, sc by tail-flick assay. The format is functional. The note with it: route subcutaneous.
Assay [5] has as its system Mus musculus. Description: Antinociceptive activity in Swiss Webster mouse at 1.6 mg/kg, sc by tail-flick assay. The format is functional, organism-based. Also noted: dose 1.6 mg/kg.

Molecules are shown by their SMILES. The source made the active and inactive calls. No cut-off for these calls is given here.

For the compound `C=CCN1CC[C@]23c4c5ccc(O)c4O[C@H]2[C@H](N)CC[C@@]3(O)[C@H]1C5.Cl`, the results for the IC50 in assay [1] and in assay [3] were 5.3 ×10⁻⁸ M and 8.6 ×10⁻⁸ M, respectively. The compound further gave an ED50 in the assay with Mus musculus [2] of 4.9 mg/kg.

`CN1CC[C@]23c4c5ccc(O)c4O[C@H]2[C@@H](O)C=C[C@H]3[C@H]1C5.Cl` [MORPHINE HYDROCHLORIDE] gave an ED50 with Mus musculus [2] of 0.33 mg/kg.

In the case of `Cl.N[C@@H]1CC[C@@]2(O)[C@H]3Cc4ccc(O)c5c4[C@@]2(CCN3CC2CC2)[C@H]1O5`, the results for the IC50 in assay [1] and in assay [3] were 7 ×10⁻¹⁰ M and 9.1 ×10⁻¹⁰ M, respectively. 5.12 mg/kg produced 27% inhibition in vivo in the assay on Mus musculus [4].

In the case of `C=CCN1CC[C@]23c4c5ccc(O)c4O[C@H]2[C@@H](N)CC[C@@]3(O)[C@H]1C5.Cl`, the inhibition result in the assay with Mus musculus [5] is “inactive”. The results for the IC50 in assay [1] and in assay [3] were 1.1 ×10⁻⁷ M and 1.4 ×10⁻⁷ M, respectively.

For the compound `Cl.N[C@H]1CC[C@@]2(O)[C@H]3Cc4ccc(O)c5c4[C@@]2(CCN3CC2CC2)[C@H]1O5`, the results for the IC50 in assay [1] and in assay [3] were 9 nM and 2.9 nM, respectively. Moreover, in the assay with Mus musculus [4], at 5.12 mg/kg the inhibition in vivo was 18%.

A word on the ED50: it is the midpoint of the dose-response relation. Usually inhibition in vivo stands for the percentage by which the read-out fell short of the control.
